≈ marks a conversion by molar mass, not a printed value.
What was measured:
Mycolicibacterium aurum [1] = assay: Antimycobacterial activity against Mycobacterium aurum ATCC 10437 cultured in GAST media incubated for 72 hrs by resazurin microtiter assay; format: functional
[2] = system: Mycobacterium tuberculosis; assay: microbe, parasite or virus in culture; conditions: H37Rv ATCC 27294, 192 h
[3] = system: Mycolicibacterium smegmatis; assay: Antitubercular activity against Mycobacterium smegmatis mc2155 ATCC 700084 cultured in GAST media incubated for 24 hrs by resazurin microtiter assay; format: functional
Mycolicibacterium aurum [4] = assay: Antimycobacterial activity against Mycobacterium aurum ATCC 10437 cultured in GAST-Fe media incubated for 72 hrs by resazurin microtiter assay; format: functional
[5] = system: Mycolicibacterium smegmatis; assay: Antitubercular activity against Mycobacterium smegmatis mc2155 ATCC 700084 cultured in GAST-Fe media incubated for 24 hrs by resazurin microtiter assay; format: functional
[6] = system: Mycobacterium tuberculosis; assay: microbe, parasite or virus in culture; conditions: H37Rv ATCC 27294, 192 h; remark: listed apart in the source

NC(=S)N1N=C(c2ccccc2O)CC1c1ccccc1 (configuration not stated)
MIC90 (Mycolicibacterium aurum [1]): 64 µg/mL (≈ 215 µM)
MIC90 [2]: 128 µg/mL (≈ 430 µM)
MIC90 [3]: 128 µg/mL (≈ 430 µM)
MIC90 (Mycolicibacterium aurum [4]): 64 µg/mL (≈ 215 µM)
MIC90 [5]: 256 µg/mL (≈ 861 µM)
MIC90 [6]: 4 µg/mL (≈ 13.5 µM)

NC(=S)N1N=C(c2ccccc2O)CC1c1ccccc1Cl (configuration not stated)
MIC90 [2]: 16 µg/mL (≈ 48.2 µM)
MIC90 [3]: 256 µg/mL (≈ 771 µM)
MIC90 [5]: 256 µg/mL (≈ 771 µM)
MIC90 [6]: 8 µg/mL (≈ 24.1 µM)

COc1cccc(C2CC(c3ccccc3O)=NN2C(C)=O)c1 (configuration not stated)
MIC90 [2]: > 256 µg/mL
MIC90 [3]: > 256 µg/mL
MIC90 [5]: 256 µg/mL (≈ 825 µM)
MIC90 [6]: > 256 µg/mL

Oc1cccc(C2CC(c3ccccc3O)=NN2)c1 (configuration not stated)
MIC90 [2]: > 256 µg/mL
MIC90 [3]: 64 µg/mL (≈ 252 µM)
MIC90 [5]: 64 µg/mL (≈ 252 µM)
MIC90 [6]: 64 µg/mL (≈ 252 µM)

CC(=O)N1N=C(c2ccccc2O)CC1c1ccc(Cl)cc1 (configuration not stated)
MIC90 [2]: > 256 µg/mL
MIC90 [3]: > 256 µg/mL
MIC90 [5]: 256 µg/mL (≈ 813 µM)
MIC90 [6]: > 256 µg/mL

Oc1ccccc1C1=NNC(c2ccc(F)cc2)C1 (configuration not stated)
MIC90 [2]: 128 µg/mL (≈ 499 µM)
MIC90 [3]: 8 µg/mL (≈ 31.2 µM)
MIC90 [5]: 64 µg/mL (≈ 250 µM)
MIC90 [6]: 16 µg/mL (≈ 62.4 µM)

NC(=S)N1N=C(c2ccccc2O)CC1c1ccccc1O (configuration not stated)
MIC90 [2]: 256 µg/mL (≈ 817 µM)
MIC90 [3]: 64 µg/mL (≈ 204 µM)
MIC90 [5]: 256 µg/mL (≈ 817 µM)
MIC90 [6]: 256 µg/mL (≈ 817 µM)

Oc1ccc(C2CC(c3ccccc3O)=NN2)cc1 (configuration not stated)
MIC90 [2]: > 256 µg/mL
MIC90 [3]: 32 µg/mL (≈ 126 µM)
MIC90 [5]: 64 µg/mL (≈ 252 µM)
MIC90 [6]: 128 µg/mL (≈ 503 µM)

CC(=O)N1N=C(c2ccccc2O)CC1c1cccc(O)c1 (configuration not stated)
MIC90 [2]: > 256 µg/mL
MIC90 [3]: > 256 µg/mL
MIC90 [5]: > 256 µg/mL
MIC90 [6]: > 256 µg/mL

COc1ccc(C2CC(c3ccccc3O)=NN2)cc1 (configuration not stated)
MIC90 [2]: 128 µg/mL (≈ 477 µM)
MIC90 [3]: 64 µg/mL (≈ 239 µM)
MIC90 [5]: 128 µg/mL (≈ 477 µM)
MIC90 [6]: 32 µg/mL (≈ 119 µM)

Oc1ccccc1C1=NNC(c2ccccc2O)C1 (configuration not stated)
MIC90 [2]: > 256 µg/mL
MIC90 [3]: 64 µg/mL (≈ 252 µM)
MIC90 [5]: 64 µg/mL (≈ 252 µM)
MIC90 [6]: 64 µg/mL (≈ 252 µM)

CC(=O)N1N=C(c2ccccc2O)CC1c1cccc(Br)c1 (configuration not stated)
MIC90 [2]: > 256 µg/mL
MIC90 [3]: > 256 µg/mL
MIC90 [5]: 256 µg/mL (≈ 713 µM)
MIC90 [6]: > 256 µg/mL

CC(=O)N1N=C(c2ccccc2O)CC1c1ccc(Br)cc1 (configuration not stated)
MIC90 [2]: > 256 µg/mL
MIC90 [3]: > 256 µg/mL
MIC90 [5]: > 256 µg/mL
MIC90 [6]: > 256 µg/mL

COc1ccccc1C1CC(c2ccccc2O)=NN1C(C)=O (configuration not stated)
MIC90 [2]: > 256 µg/mL
MIC90 [3]: > 256 µg/mL
MIC90 [5]: > 256 µg/mL
MIC90 [6]: > 256 µg/mL

Cc1ccccc1C1CC(c2ccccc2O)=NN1C(N)=S (configuration not stated)
MIC90 [2]: 16 µg/mL (≈ 51.4 µM)
MIC90 [3]: 128 µg/mL (≈ 411 µM)
MIC90 [5]: > 256 µg/mL
MIC90 [6]: 16 µg/mL (≈ 51.4 µM)

NC(=S)N1N=C(c2ccccc2O)CC1c1ccc(Cl)cc1 (configuration not stated)
MIC90 [2]: 8 µg/mL (≈ 24.1 µM)
MIC90 [3]: 128 µg/mL (≈ 386 µM)
MIC90 [5]: 256 µg/mL (≈ 771 µM)
MIC90 [6]: 4 µg/mL (≈ 12.1 µM)

CC(=O)N1N=C(c2ccccc2O)CC1c1ccc(C)cc1 (configuration not stated)
MIC90 [2]: > 256 µg/mL
MIC90 [3]: > 256 µg/mL
MIC90 [5]: 256 µg/mL (≈ 870 µM)
MIC90 [6]: > 256 µg/mL

Cc1ccccc1C1CC(c2ccccc2O)=NN1 (configuration not stated)
MIC90 [2]: 64 µg/mL (≈ 254 µM)
MIC90 [3]: 16 µg/mL (≈ 63.4 µM)
MIC90 [5]: 128 µg/mL (≈ 507 µM)
MIC90 [6]: 16 µg/mL (≈ 63.4 µM)

COc1ccc(C2CC(c3ccccc3O)=NN2)cc1O (configuration not stated)
MIC90 [2]: 256 µg/mL (≈ 900 µM)
MIC90 [3]: > 256 µg/mL
MIC90 [5]: > 256 µg/mL
MIC90 [6]: 128 µg/mL (≈ 450 µM)

CO[C@H]1/C=C/O[C@@]2(C)Oc3c(C)c(O)c4c(O)c(c(/C=N/N5CCN(C)CC5)c(O)c4c3C2=O)NC(=O)/C(C)=C\C=C\[C@H](C)[C@H](O)[C@@H](C)[C@@H](O)[C@@H](C)[C@H](OC(C)=O)[C@@H]1C [RIFAMPIN]
MIC90 [2]: 0.005 µg/mL (≈ 0.00608 µM)
MIC90 [3]: 8 µg/mL (≈ 9.72 µM)
MIC90 [5]: 8 µg/mL (≈ 9.72 µM)
MIC90 [6]: 0.03 µg/mL (≈ 0.0365 µM)

NNC(=O)c1ccncc1 [ISONIAZID]
MIC90 [2]: 0.005 µg/mL (≈ 0.0365 µM)
MIC90 [3]: 2 µg/mL (≈ 14.6 µM)
MIC90 [5]: 2 µg/mL (≈ 14.6 µM)
MIC90 [6]: 0.03 µg/mL (≈ 0.219 µM)

Cc1ccc(C2CC(c3ccccc3O)=NN2)cc1 (configuration not stated)
MIC90 [2]: 32 µg/mL (≈ 127 µM)
MIC90 [3]: 16 µg/mL (≈ 63.4 µM)
MIC90 [5]: 64 µg/mL (≈ 254 µM)
MIC90 [6]: 8 µg/mL (≈ 31.7 µM)

Oc1ccccc1C1=NNC(c2cccc(F)c2)C1 (configuration not stated)
MIC90 [2]: 256 µg/mL (≈ 999 µM)
MIC90 [3]: 16 µg/mL (≈ 62.4 µM)
MIC90 [5]: 64 µg/mL (≈ 250 µM)
MIC90 [6]: 64 µg/mL (≈ 250 µM)

CC(=O)N1N=C(c2ccccc2O)CC1c1ccccc1O (configuration not stated)
MIC90 [2]: 256 µg/mL (≈ 864 µM)
MIC90 [3]: > 256 µg/mL
MIC90 [5]: > 256 µg/mL
MIC90 [6]: > 256 µg/mL

COc1ccc(C2CC(c3ccccc3O)=NN2C(N)=S)cc1 (configuration not stated)
MIC90 [2]: > 256 µg/mL
MIC90 [3]: 128 µg/mL (≈ 391 µM)
MIC90 [5]: > 256 µg/mL
MIC90 [6]: 64 µg/mL (≈ 195 µM)

— ChEMBL document CHEMBL5046254, “Mycobactin Analogues with Excellent Pharmacokinetic Profile Demonstrate Potent Antitubercular Specific Activity and Exceptional Efflux Pump Inhibition” (J Med Chem, 2022)
